# Assay results published in PubChem BioAssay AID652002 (Sanford-Burnham Center for Chemical Genomics, 2013).
# Active and inactive are the calls of the source. The rule behind the calls is not given here.
# How the values were obtained:
# [1] = molecular target: Tumor necrosis factor receptor superfamily member 10B (Homo sapiens) (UniProt O14763); assay: compound enhancement of TRAIL-induced cell killing – NB7 cells plus caspase-8, luminescence, panel, dose response (AID 652002); details: NB7 neuroblastoma +caspase-8, TRAIL sensitization, luminescence viability; NB7+Caspase-8; with TRAIL, mean of runs
# [2] = as above; details: NB7 neuroblastoma +caspase-8, no TRAIL, compound-alone cytotoxicity counter-screen, luminescence viability, NB7+Caspase-8
# [3] = molecular target: NB7+Caspase-8; assay: as above; details: NB7 neuroblastoma +caspase-8, TRAIL sensitization, luminescence viability, with TRAIL
# [4] = run 1, single replicate panel EC50
# [5] = run 2, single replicate panel EC50
# Tumor necrosis factor receptor superfamily member 10B (Homo sapiens), sequence (O14763 whole entry, looked up): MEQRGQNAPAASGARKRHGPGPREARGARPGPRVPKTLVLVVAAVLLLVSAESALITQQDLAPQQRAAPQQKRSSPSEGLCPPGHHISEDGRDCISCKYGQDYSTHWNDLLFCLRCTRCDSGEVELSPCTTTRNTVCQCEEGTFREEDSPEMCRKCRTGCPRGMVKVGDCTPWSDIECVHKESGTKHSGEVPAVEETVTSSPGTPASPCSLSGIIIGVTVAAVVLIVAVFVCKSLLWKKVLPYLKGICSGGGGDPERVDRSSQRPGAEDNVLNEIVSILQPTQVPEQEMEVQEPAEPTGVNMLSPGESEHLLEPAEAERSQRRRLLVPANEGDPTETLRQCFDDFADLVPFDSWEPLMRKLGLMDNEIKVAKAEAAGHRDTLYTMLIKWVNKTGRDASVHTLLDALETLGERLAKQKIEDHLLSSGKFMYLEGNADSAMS
SMILES,EC50 [1],EC50 ([2]; mean of runs),"EC50 [2, 4] [µM]","EC50 [2, 5] [µM]","EC50 [3, 4] [µM]","EC50 [3, 5] [µM]"
COc1cc(NC(=O)c2[nH]cnc2C(N)=O)cc(C(=O)Nc2cccc(C(F)(F)F)c2)c1,inactive,inactive,> 12.5,10.4,> 12.5,8.91
CCCC1(CCC)C(=O)NC(=NCc2ccccc2)NC1=O,> 12.5 µM (inactive),> 12.5 µM (inactive),> 12.5,> 12.5,> 12.5,> 12.5
CC(C)Cc1nc2oc3c(Cl)ncnc3c2c2c1CCCC2,> 12.5 µM (inactive),> 12.5 µM (inactive),> 12.5,> 12.5,> 12.5,> 12.5
O=C(NC(=S)Nc1nc2c(s1)CCCC2)c1ccccc1,inactive,> 12.5 µM (inactive),> 12.5,> 12.5,7.43,> 12.5
Cc1ccn2cc(C(=O)Nc3ccc4c(c3)OCCO4)nc2c1,inactive,inactive,7.08,8.4,> 12.5,4.29
CCN(CC)c1ccc(/C=N/NC(=O)c2ccco2)cc1,> 12.5 µM (inactive),> 12.5 µM (inactive),> 12.5,> 12.5,> 12.5,> 12.5
O=C1CCCCC1Sc1nnc(-c2ccc3c(c2)OCO3)o1 (stereo unspecified),> 12.5 µM (inactive),inactive,> 12.5,11,> 12.5,> 12.5
Cc1onc(-c2c(Cl)cccc2Cl)c1C(=O)ONC(=O)c1ccccc1,> 12.5 µM (inactive),> 12.5 µM (inactive),> 12.5,> 12.5,> 12.5,> 12.5
Cc1ccc(N=C/C(C(=O)C(F)(F)F)=C(\O)c2cccs2)cc1,inactive,inactive,> 12.5,1.87,6.11,4
O=C(Nc1ccc2ccccc2c1)c1ccc(Cl)cc1,> 12.5 µM (inactive),> 12.5 µM (inactive),> 12.5,> 12.5,> 12.5,> 12.5
Cc1cccc2nc(=S)n(C(=O)c3ccco3)n12,> 12.5 µM (inactive),> 12.5 µM (inactive),> 12.5,> 12.5,> 12.5,> 12.5
CC(C)(C)OC(=O)NCc1ccc(NC(=O)c2nc[nH]c2C(=O)N[C@@H](Cc2ccccc2)C(=O)OCc2ccccc2)cc1,> 12.5 µM (inactive),> 12.5 µM (inactive),> 12.5,> 12.5,> 12.5,> 12.5
CC(=O)c1ccc(NC(=O)Nc2cccnc2)cc1,inactive,inactive,11.4,10.2,> 12.5,9.72
CCOC(=O)c1cccc(-[n+]2c(-c3ccccc3)cc(-c3ccccc3)cc2-c2ccccc2)c1,> 12.5 µM (inactive),> 12.5 µM (inactive),> 12.5,> 12.5,> 12.5,> 12.5
O=C(N/N=C/c1cccc(OC(=O)c2ccco2)c1)c1ccc(F)cc1,inactive,inactive,4.46,7.04,4.82,4.55
Nc1ccccc1C(=O)NN=Cc1cccc([N+](=O)[O-])c1,inactive,inactive,> 12.5,9.8,> 12.5,7.52
CC(C)CCn1c(=O)c(C(=O)Nc2ccccc2S(N)(=O)=O)c(O)c2ccccc21,> 12.5 µM (inactive),> 12.5 µM (inactive),> 12.5,> 12.5,> 12.5,> 12.5
CCOc1ccc(NC(=O)Nc2cccs2)cc1,inactive,inactive,10.7,6.47,> 12.5,6.86
O=c1cc(-c2ccccc2)nc2cc(-c3ccc(F)cc3)[nH]n12,> 12.5 µM (inactive),> 12.5 µM (inactive),> 12.5,> 12.5,> 12.5,> 12.5
C/C(=N\NC(=O)c1csc(C)c1C)c1ccco1,> 12.5 µM (inactive),> 12.5 µM (inactive),> 12.5,> 12.5,> 12.5,> 12.5
O=C(Nc1cnc2ccccn2c1=O)c1ccc(Cl)cc1Cl,> 12.5 µM (inactive),> 12.5 µM (inactive),> 12.5,> 12.5,> 12.5,> 12.5

SMILES,EC50 [1],EC50 ([2]; mean of runs),"EC50 [2, 4] [µM]","EC50 [2, 5] [µM]","EC50 [3, 4] [µM]","EC50 [3, 5] [µM]"
CCOC(=O)[C@]12Cc3cc4ccccc4cc3[C@H]1N(Cc1ccccc1)C(=O)c1ccccc12,> 12.5 µM (inactive),> 12.5 µM (inactive),> 12.5,> 12.5,> 12.5,> 12.5
Cc1ccnc(NC(=O)Nc2ccc3c(c2)OCO3)c1,> 12.5 µM (inactive),> 12.5 µM (inactive),> 12.5,> 12.5,> 12.5,> 12.5
Cc1cc(NC(=O)c2cncc(Br)c2)ccc1NC(=O)c1cc2ccccc2o1,inactive,> 12.5 µM (inactive),> 12.5,> 12.5,> 12.5,9.86
CCN(CC)c1ccc(NC(=O)Nc2ccccc2)cc1,inactive,inactive,> 12.5,10.9,> 12.5,8.27
c1ccc(-c2cnc(-c3ccccn3)nn2)cc1,inactive,inactive,5.74,10,> 12.5,5.78
O=C(Nc1ccc2c(c1)OCO2)c1ccc2c(c1)OCO2,inactive,inactive,6.92,11.2,> 12.5,5.17
CCCCCCCn1c2c(c(=N)c3ccccc31)CCC2,inactive,> 12.5 µM (inactive),> 12.5,> 12.5,> 12.5,4.65
CCOc1ccc(NC(=O)c2ccco2)cc1,inactive,inactive,6.87,10.7,> 12.5,6.9
O=C1Cc2c(-c3ccccc3)cc(-c3cccc(Cl)c3)nc2-c2ccccc2N1,> 12.5 µM (inactive),> 12.5 µM (inactive),> 12.5,> 12.5,> 12.5,> 12.5
Cc1cc(NC(=O)C2CCCC2)nc2c1c(=O)oc1ccccc12,> 12.5 µM (inactive),> 12.5 µM (inactive),> 12.5,> 12.5,> 12.5,> 12.5
COc1ccc(/C(C)=N/Nc2nncc3ccccc23)cc1,inactive,> 12.5 µM (inactive),> 12.5,> 12.5,7.33,> 12.5
Cc1ccc(-n2nnc(-c3cccnc3Cl)n2)cc1,> 12.5 µM (inactive),> 12.5 µM (inactive),> 12.5,> 12.5,> 12.5,> 12.5
CCOc1ccc2nc(NC(=O)c3cccc(-c4cc5ccccc5oc4=O)c3)sc2c1,> 12.5 µM (inactive),> 12.5 µM (inactive),> 12.5,> 12.5,> 12.5,> 12.5
CCCCCCc1cc2cc(S(=O)(=O)c3ccc(F)c(Cl)c3)c(=O)oc2cc1O,> 12.5 µM (inactive),> 12.5 µM (inactive),> 12.5,> 12.5,> 12.5,> 12.5
COc1ccccc1C=NNC(=O)NN=Cc1ccccc1OC,inactive,inactive,8.5,10.3,> 12.5,7.21
O=C(Nc1ccc2[nH]ccc2c1)c1cccs1,inactive,inactive,7.12,4.71,3.97,5.19
COc1ccc(-c2nnc(SCC(=O)c3[nH]c(C)c(C(C)=O)c3C)o2)cc1,> 12.5 µM (inactive),> 12.5 µM (inactive),> 12.5,> 12.5,> 12.5,> 12.5
Cc1nc2cc(NC(=O)Nc3cccc([N+](=O)[O-])c3)ccc2n1C,inactive,> 12.5 µM (inactive),> 12.5,> 12.5,> 12.5,6.56
CCCCCc1cc(=O)oc2c(C(CCN(CC)CC)c3cc(OC)c(OC)c(OC)c3)c(OC)cc(OC)c12 (stereo unspecified),inactive,> 12.5 µM (inactive),> 12.5,> 12.5,> 12.5,10.3
Cc1ccc(NC(=O)CSc2nc3ccc(Nc4nc(N5CCOCC5)nc(N5CCOCC5)n4)cc3s2)cc1,> 12.5 µM (inactive),> 12.5 µM (inactive),> 12.5,> 12.5,> 12.5,> 12.5
